Results: US7309497B2, “Injectable pharmaceutical composition for systematic administration of pharmacologically active ingredients” (Schwarz Pharma AG, priority 2000, dated 2007)
Like-named read-outs stand apart in the source and are kept apart here. One block for each compound: values may come before it.

Legend:
[1] = in vivo; cited from earlier work
[2] = Bioavailability and release of N-0923 from the depot composition per the invention; assay type: in vivo
From the text: The composition according to the invention is particularly preferred for the administration of N-0923 hydrochloride, and especially so in a formulation with crystalline N-0923 hydrochloride. The latter can be produced for instance as described in U.S. Pat. No. 4,564,628.

[3] = subcutaneous administration; tests with animals; cited from earlier work
[4] = distinct first-pass effect; cited from earlier work
[5] = intravenously injected aqueous solutions; tests with animals; cited from earlier work
[6] = cited from earlier work
[7] = in vivo; cited from earlier work; remark: listed apart in the source

Compound: O=c1[nH]cc(F)c(=O)[nH]1 [5-fluorouracil]
- half-time value [1]: 10 to 20 min

- relationship of plasma agent levels to the dose introduced in the body ([2]; depot composition): linear relationship
- time over which the active agent is released from the depots in the body in a therapeutically effective amount ([2]; depot composition): over 48 hours
- bioavailability ([2]; plasma, depot composition with N-0923, read-out: bioavailability of the pharmaceutical composition per the invention): ~70%
Compound: CCCN(CCc1cccs1)[C@H]1CCc2c(O)cccc2C1 [N-0923, S(−)-2-(N-propyl-N-2-thienylerhyl-amino)-5-hyroxytetralin]
- half-time value [3]: 60 to 70 min
- bioavailability after oral administration [4]: about 0.5%
- half-time value [5]: 52 min

Compound: N[C@@H](Cc1ccc(O)c(O)c1)C(=O)O [levodopa]
- half-time in the plasma [6]: 1 to 3 h

Compound: proinsulin C-peptide
- half-time value [7]: about 30 minutes
